Consider one molecule from PMC8536830 (Current Biology, 2021).

Experiment [1] has as its target T1, LGC-50 (Caenorhabditis elegans, UniProt P41849).
T1 construct: lgc-50 ORF F […]; expressed in transfected cells; host or cells: Xenopus laevis oocytes injected with cRNA (plasmid pJML002, KSM: lgc-50 cDNA)
T1 sequence (P41849 20-491): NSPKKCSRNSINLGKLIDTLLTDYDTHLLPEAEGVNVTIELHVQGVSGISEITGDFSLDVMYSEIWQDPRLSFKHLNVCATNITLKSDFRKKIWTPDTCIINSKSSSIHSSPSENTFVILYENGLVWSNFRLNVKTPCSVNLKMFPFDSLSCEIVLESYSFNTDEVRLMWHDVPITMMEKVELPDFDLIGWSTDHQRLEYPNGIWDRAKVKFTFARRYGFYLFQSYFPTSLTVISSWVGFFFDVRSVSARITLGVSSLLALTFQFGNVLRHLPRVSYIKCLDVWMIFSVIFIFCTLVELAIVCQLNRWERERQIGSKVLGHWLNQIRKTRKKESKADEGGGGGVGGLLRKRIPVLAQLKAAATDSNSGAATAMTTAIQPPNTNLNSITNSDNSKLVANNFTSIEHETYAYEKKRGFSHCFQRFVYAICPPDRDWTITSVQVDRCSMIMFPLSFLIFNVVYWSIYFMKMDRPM
The experiment is described as follows: Two-electrode voltage clamp, agonist-evoked currents in Xenopus oocytes expressing LGC-50. Format: cell-based, C. elegans. The source says: We aimed to deorphanize C. elegans LGICs without known ligands, focusing on 5 genes in the putative monoamine-gated group: lgc-50; lgc-51; lgc-52; lgc-54; and lgc-56 (previously named ggr-3). Using heterologous overexpression in Xenopus oocytes and two-electrode voltage clamp recordings, we measured channel activity evoked by application of 11 monoamines and other neurotransmitters.
(§1) Defolliculated Xenopus laevis oocytes were obtained from EcoCyte Bioscience (Dortmund, Germany) and maintained in ND96 (in mM: 96 NaCl, 1 MgCl2, 5 HEPES, 1.8 CaCl2, 2 KCl) solution at 16°C for 3-5 days.
5'-capped cRNA was synthesized in vitro using the T3 mMessage mMachine transcription kit according to manufacturer’s protocol (Thermo Fischer Scientific, CA, USA). RNA was then purified using the GeneJET RNA purification kit (Thermo Fischer Scientific, CA, USA) prior to cRNA injection. […]
(§2) Two-electrode voltage clamp recordings were carried out using the Robocyte2 recording system or a manual TEVC set up, using an OC-725D amplifier (Multi Channel Systems, Reutlingen, Germany) and paired with a custom-made recording chamber and agar bridges from reference and bath electrodes. […] Data was recorded using WinWCP or RoboCyte2 control software, manual data was filtered at 10 Hz.
Dose response curves were calculated from the peak current during a 10 s agonist stimulation in ND96 solution, with a 60 s ND96 wash in between doses. […] Normalized dose response data was fitted to a nonlinear curve using a four parameters variable slope and the EC50 and Hill slope was calculated. […] Ion selectivity was determined using a voltage ramp protocol of 20mV/s ranging from −80mV to +60mV in the presence or absence of the primary agonist in three different solutions: ND96, NMDG (Na^+ free) and Na Gluconate (low Cl^-) solutions. […] Antagonist dose response curves were calculated from the peak current during a 10 s agonist + antagonist stimulation in ND96 solution, with the agonist concentration remaining constant. […] Kinetic measurements were calculated from a 60 s agonist perfusion. […]
For orientation: Two-electrode voltage clamp holds a large cell at a set potential and records current.

Experiment [2] deals with T2, LGC-50:MOD-1(363-397) (Caenorhabditis elegans, UniProt P41849).
T2 sequence (P41849 with tags, fused parts or gaps): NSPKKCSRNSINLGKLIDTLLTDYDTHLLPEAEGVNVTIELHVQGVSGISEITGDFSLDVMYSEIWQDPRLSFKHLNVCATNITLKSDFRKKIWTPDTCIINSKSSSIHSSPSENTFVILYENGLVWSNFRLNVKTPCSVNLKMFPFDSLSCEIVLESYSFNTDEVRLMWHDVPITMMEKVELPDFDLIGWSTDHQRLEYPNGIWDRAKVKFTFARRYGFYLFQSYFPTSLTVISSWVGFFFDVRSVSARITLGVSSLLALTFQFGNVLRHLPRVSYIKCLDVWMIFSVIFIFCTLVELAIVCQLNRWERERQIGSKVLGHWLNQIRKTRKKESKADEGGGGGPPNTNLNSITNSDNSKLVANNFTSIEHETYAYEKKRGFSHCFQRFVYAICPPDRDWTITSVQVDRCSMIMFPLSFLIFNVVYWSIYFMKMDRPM
T2 sequence (Q9GQ00 363-397 partner): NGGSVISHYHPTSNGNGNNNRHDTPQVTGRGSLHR
Briefly: Two-electrode voltage clamp, 5-HT evoked dose response, LGC-50:MOD-1(363-397) chimera. Type of experiment: cell-based, C. elegans. Conditions: Xenopus oocytes, TEVC. The procedure:
as §1
5'-capped cRNA was synthesized in vitro using the T3 mMessage mMachine transcription kit according to manufacturer’s protocol (Thermo Fischer Scientific, CA, USA). RNA was then purified using the GeneJET RNA purification kit (Thermo Fischer Scientific, CA, USA) prior to cRNA injection. Defolliculated Xenopus oocytes were placed individually into 96 well plates and injected with 50nL of 500ng/μL RNA using the Roboinject system (Multi Channel Systems GmbH, Reutlingen, Germany). […]
as §2
Dose response curves were calculated from the peak current during a 10 s agonist stimulation in ND96 solution, with a 60 s ND96 wash in between doses. […] Normalized dose response data was fitted to a nonlinear curve using a four parameters variable slope and the EC50 and Hill slope was calculated. […]

As usually defined, the EC50 is the midpoint of the concentration-response curve. With `NCCc1c[nH]c2ccc(O)cc12` [5-HT, serotonin], the concentration giving a half-maximal response (EC50) stood at 940 nM in experiment [1] (Xenopus oocytes, TEVC, current normalized to Imax, Hill equation with variable slope, read-out: EC50, agonist-evoked dose response, LGC-50) and 980 nM in experiment [2]. In experiment [1] (ligands screened at 100 μM, oocytes clamped at −60 mV), the “Channel gating in ligand screen, LGC-50” value was “gated”.
